A short description of this data set: collision cross section in nitrogen (drift tube, single-field); higher = larger gas-phase ion size.
[1] abbreviates: ion type: [M-H], ion source: ESI, ion mode: Negative.
The mark [2] stands for this setting: ion type: [M+Na], ion source: ESI, ion mode: Positive.
[3] abbreviates: ion type: [M+H], ion source: ESI, ion mode: Positive.
Where [4] appears, read: ion type: [M+H], ion source: APCI, ion mode: Positive.

Structures can show the parent of a compound that is named as a salt.
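Further: chemical standards at 10 µM analysed by drift tube IMS-QTOF MS in about 3.95 torr nitrogen, mean of duplicate injections differing ≤1%, mass error below 10 ppm.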

Take `O=[N+]([O-])O` [Copper(II) nitrate trihydrate]: under setting [1], the “collision cross section in nitrogen” value is given as 104.1 Å². `C[C@]12C[C@H](O)[C@H]3[C@@H](CCC4=CC(=O)CC[C@@]43C)[C@@H]1CC[C@@H]2C(=O)CO` [Corticosterone]: the “collision cross section in nitrogen” value under setting [2] came to 212.4 Å². Consider `CN1C(=O)CC[C@H]1c1cccnc1` [Cotinine], for which the “collision cross section in nitrogen” value under setting [3] came out at 144.8 Å².

Take `Cc1ccccc1OP(=O)(Oc1ccccc1)Oc1ccccc1` [Cresyl diphenyl phosphate]: the “collision cross section in nitrogen” value is, setting by setting: under setting [4], 178.3 Å²; under setting [3], 178 Å²; under setting [2], 188.4 Å². Regarding `O=C(O)c1cc(=O)c2c(OCC(O)COc3cccc4oc(C(=O)O)cc(=O)c34)cccc2o1` [Cromolyn sodium], the “collision cross section in nitrogen” value runs as follows: under setting [3], 208.8 Å²; under setting [2], 211.8 Å²; under setting [1], 186 Å². For the compound `CC=CC(=O)N(CC)c1ccccc1C` [Crotamiton], the “collision cross section in nitrogen” value was 145.3 Å² under setting [4], 145.7 Å² under setting [3] and 157 Å² under setting [2]. The corresponding values for `CNP(=O)(OC)Oc1ccc(C(C)(C)C)cc1Cl` (configuration not stated) [Crufomate] are 165.2 Å², 165 Å² and 176.3 Å². For the compound `COc1cc(/C=C/C(=O)CC(=O)/C=C/c2ccc(O)c(OC)c2)ccc1O` [Curcumin], the “collision cross section in nitrogen” value amounted to 202.8 Å² under setting [4] and 187.7 Å² under setting [1]. With `CCNc1nc(Cl)nc(NC(C)(C)C#N)n1` [Cyanazine], the “collision cross section in nitrogen” value was 155.6 Å² under setting [4] and 155.4 Å² under setting [3]. `CSc1nc(NC2CC2)nc(NC(C)(C)C)n1` [Cybutryne]: the “collision cross section in nitrogen” value is reported as 162.8 Å² under setting [4] and 162.4 Å² under setting [3]. On to `O=S(=O)(O)NC1CCCCC1` [Cyclamic acid], for which the “collision cross section in nitrogen” value under setting [1] is reported as 139.6 Å². On the same count and under the same terms, to `O=C(O)C1(C(=O)Nc2ccc(Cl)cc2Cl)CC1` [Cyclanilide] belongs 156.3 Å². Take `N=c1ccn2c(n1)O[C@H]1[C@H](O)[C@@H](CO)O[C@H]12` [Cyclocytidine]: the “collision cross section in nitrogen” value came out at 143.1 Å² under setting [4], 143.5 Å² under setting [3] and 156.7 Å² under setting [2]. The corresponding values for `O=P1(N(CCCl)CCCl)NCCCO1` (configuration not stated) [Cyclophosphamide monohydrate] are 148 Å², 147.6 Å² and 154.6 Å². Consider `O=P1(N(CCCl)CCCl)NCCCO1` (configuration not stated) [Cyclophosphamide], for which the “collision cross section in nitrogen” value under setting [4] is 147.8 Å², the “collision cross section in nitrogen” value under setting [3] stood at 147.7 Å² and the “collision cross section in nitrogen” value under setting [2] is reported as 154.6 Å².

As to `CCCCOC(=O)[C@@H](C)Oc1ccc(Oc2ccc(C#N)cc2F)cc1` [Cyhalofop-butyl], the “collision cross section in nitrogen” value under setting [2] was found to be 191.2 Å². `CC(C1CC1)C(O)(Cn1cncn1)c1ccc(Cl)cc1` (configuration not stated) [Cyproconazole]: the “collision cross section in nitrogen” value by setting is: under setting [4], 170.6 Å²; under setting [3], 170.2 Å². As to `Cc1cc(C2CC2)nc(Nc2ccccc2)n1` [Cyprodinil], the “collision cross section in nitrogen” value is given as 153.1 Å² under setting [4] and 153.4 Å² under setting [3]. Take `CC(=O)O[C@]1(C(C)=O)CC[C@H]2[C@@H]3C=C(Cl)C4=CC(=O)[C@@H]5C[C@@H]5[C@]4(C)[C@H]3CC[C@@]21C` [Cyproterone acetate]: the “collision cross section in nitrogen” value was 201.9 Å² under setting [3] and 201.5 Å² under setting [1].

With `Nc1nc(N)nc(NC2CC2)n1` [Cyromazine], the “collision cross section in nitrogen” value amounted to 135.6 Å² under setting [4] and 135.9 Å² under setting [3]. Consider `Nc1ccn([C@@H]2O[C@H](CO)[C@@H](O)[C@@H]2O)c(=O)n1` [Cytarabine hydrochloride], for which the “collision cross section in nitrogen” value under setting [2] is recorded as 157.1 Å². Same read-out and setting: to `Nc1ccn([C@@H]2O[C@H](CO)[C@@H](O)[C@@H]2O)c(=O)n1` [Cytarabine] belongs 156.9 Å². Regarding `Nc1ccnc(=O)[nH]1` [Cytosine], the “collision cross section in nitrogen” value reads like this: under setting [4], 117.3 Å²; under setting [3], 118.8 Å².

Regarding `O=C1c2ccccc2C(=O)C1c1ccc2ccccc2n1` [D & C Yellow 11], the “collision cross section in nitrogen” value is on record as 158.6 Å² under setting [3] and 163.8 Å² under setting [1]. For the compound `O=C1OC2(c3cc(Br)c(O)c(Br)c3Oc3c2cc(Br)c(O)c3Br)c2c(Cl)c(Cl)c(Cl)c(Cl)c21` [D&C Red 27], the “collision cross section in nitrogen” value under setting [1] is given as 226.8 Å². As for `Cc1ccc(Nc2ccc(O)c3c2C(=O)c2ccccc2C3=O)cc1` [D&C Violet 2], the “collision cross section in nitrogen” value under setting [4] came out at 176.9 Å²; the “collision cross section in nitrogen” value under setting [3] is recorded as 176.7 Å²; the “collision cross section in nitrogen” value (ion type: [M+], ion source: APCI, ion mode: Positive) is listed as 174 Å². Regarding `OC[C@@H](O)[C@@H](O)[C@H](O)[C@@H](O)CO` [D-Glucitol], the “collision cross section in nitrogen” value under setting [2] is given as 143.4 Å² and the “collision cross section in nitrogen” value under setting [1] stood at 132.3 Å². For `O=C(O)[C@H](O)[C@@H](O)[C@H](O)[C@H](O)CO` [D-Gluconic acid], the “collision cross section in nitrogen” value under setting [1] was found to be 133.2 Å². In the case of `OC[C@@H](O)[C@@H](O[C@@H]1O[C@H](CO)[C@H](O)[C@H](O)[C@H]1O)[C@H](O)[C@@H](O)CO` [D-Lactitol monohydrate], the “collision cross section in nitrogen” value worked out at 175.3 Å² under setting [2] and 171.4 Å² under setting [1].

For the compound `OC[C@@H](O)[C@@H](O)[C@H](O)[C@H](O)CO` [D-Mannitol], the “collision cross section in nitrogen” value was 141.5 Å² under setting [2] and 132.5 Å² under setting [1]. In the case of `CCN(CC)C(=O)c1cccc(C)c1` [DEET], the “collision cross section in nitrogen” value turned out to be 143.5 Å² under setting [4], 143.6 Å² under setting [3] and 160.2 Å² under setting [2]. Consider `CN(C)NC(=O)CCC(=O)O` [Daminozide], for which the “collision cross section in nitrogen” value is, setting by setting: under setting [2], 142.5 Å²; under setting [1], 135.2 Å². On to `O=C1CN(N=Cc2ccc(-c3ccc([N+](=O)[O-])cc3)o2)C(=O)N1` [Dantrolene sodium], for which, under setting [1], the “collision cross section in nitrogen” value came to 180 Å². In the case of `Nc1ccc(S(=O)(=O)c2ccc(N)cc2)cc1` [Dapsone], the “collision cross section in nitrogen” value turned out to be 155.5 Å² under setting [4], 155 Å² under setting [3], 170.7 Å² under setting [2] and 157.9 Å² under setting [1]. The corresponding values for `CC(C)(C)c1cc(/C=C2\SC(=N)NC2=O)cc(C(C)(C)C)c1O` [Darbufelone mesylate] are 188.3 Å², 188 Å², 207.3 Å² and 186.1 Å².

As to `O=C(O)CCCCCCCCC(=O)O` [Decanedioic acid], under setting [1], the “collision cross section in nitrogen” value was 144.6 Å².

Regarding `CCCCCCCCCC(=O)O` [Decanoic acid], under setting [1], the “collision cross section in nitrogen” value worked out at 149.5 Å².

Regarding `CCCCCCCCCCOC(C)=O` [Decyl acetate], under setting [1], the “collision cross section in nitrogen” value came to 155 Å². For the compound `CCCCCCCCCCO[C@@H]1O[C@H](CO)[C@@H](O)[C@H](O)[C@H]1O` [Decyl beta-D-glucopyranoside], the “collision cross section in nitrogen” value reads like this: under setting [2], 187.7 Å²; under setting [1], 192.6 Å².
